Experimental data from patent US20220162215A1, “COMPOSITIONS AND METHODS OF USING THE SAME FOR TREATMENT OF NEURODEGENERATIVE AND MITOCHONDRIAL DISEASE” (MITOKININ, INC., priority 2019, published 2022).
Where two headings read alike, the source gives them in different places.

Legend:
[1] = tested on: HeLa MKYP cells; experiment: Toxicity / cell death measured by DAPI staining (take-up); assay type: cell-based
Method: H2O2 treatment was performed as a control for cell death as measured by DAPI staining.
(§1) Briefly, HeLa MKYP cells were plated at 10,000 cells/well in 96 well plates along with compounds at various concentrations. Following 16 hrs of incubation, cells were treated with 1 uM FCCP/oligomycin for 6 hours, then analyzed via FACS for the presence of mitochondria in lysosomes (as determined by an emissions spectrum shift from the pH-sensitive mtKeima tag).

[2] = tested on: HeLa MKYP cells; experiment: Human mitophagy assay (HeLa MKYP, mtKeima FACS, FCCP/oligomycin); assay type: cell-based; conditions: for EC50: Homo sapiens, HeLa
Method: as §1, with “tag). Examples are shown in FIG. 1 through FIG. 13 below.” for “tag).”

[3] = tested on: phospho-serine 129 synuclein (pS129); experiment: Preformed α-syn amyloid fibril (PFF) primary neuron model; assay type: cell-based, mice
Method: Briefly, primary hippocampal neurons were derived and cultured following standard protocols. At DIV-7, the cultures were treated with PFFs. At DIV-10, the cultures began treatment with a Mitokinin compound or vehicle controls, such treatment continuing for the duration of the experiment. The cultures were fixed and stained for alpha synuclein, TUJ1, and MAP2 at DIV-14, and analysis performed by unbiased imaging on an ImageXpress Confocal microscope and quantified by Molecular Devices' MetaXpress software.

[4] = target: T1, PINK1 (Homo sapiens, UniProt Q9BXM7); experiment: pS65 Ubiquitin ELISA assay (HeLa-MKYP WT or PINK1 KO); assay type: cell-based; conditions: PINK1wt vs PINK1ko cells, FIG. 17A
T1 construct: for each cell type tested (HeLa-MKYP WT or PINK1^KO); endogenous in cells; host or cells: HeLa-MKYP (WT) / HeLa cells
T1 sequence (Q9BXM7 78-581): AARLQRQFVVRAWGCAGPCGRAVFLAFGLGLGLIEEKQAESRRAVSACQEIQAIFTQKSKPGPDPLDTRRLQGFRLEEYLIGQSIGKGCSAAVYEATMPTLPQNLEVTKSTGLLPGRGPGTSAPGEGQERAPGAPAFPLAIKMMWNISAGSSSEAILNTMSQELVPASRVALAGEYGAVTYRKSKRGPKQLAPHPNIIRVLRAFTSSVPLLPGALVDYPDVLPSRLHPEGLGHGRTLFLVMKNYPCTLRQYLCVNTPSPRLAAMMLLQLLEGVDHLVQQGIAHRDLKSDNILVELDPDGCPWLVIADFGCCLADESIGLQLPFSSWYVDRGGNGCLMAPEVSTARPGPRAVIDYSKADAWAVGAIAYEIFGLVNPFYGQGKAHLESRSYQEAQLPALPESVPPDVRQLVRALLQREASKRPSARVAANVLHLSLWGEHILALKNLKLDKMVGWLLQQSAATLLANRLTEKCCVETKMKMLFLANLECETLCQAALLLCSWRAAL
Method: HeLa-MKYP cells were plated at 10,000 cells/well in 96-well plates along with compounds at various concentrations. Following 16 hours of incubation, cells were treated with 1 μM FCCP/oligomycin (F/O) along with compounds at various doses for 2-3 hours. Appropriate controls were included on each plate to obtain a maximum signal from treatment with 10 μM F/O or, and a minimum signal from cells treated with no F/O with DMSO for each cell type tested (HeLa-MKYP WT or PINK1^KO). At the desired timepoint, media was removed and cells were frozen prior to lysis. Cells lysates were denatured by boiling, prior to analysis by a custom ELISA assay using commercially available antibodies (using anti-phospho-ubiquitin as a capturing antibody, and anti-total ubiquitin as a detection antibody). Purified pS65 ubiquitin was used to generate a standard curve and determine timing for ELISA reaction development.

[5] = In vivo summary, pharmacokinetics, rat
Method: Referring to Tables 8A-C below, an in vivo summary of EP-0035985 IV at 1 mg/kg (8A), PO 10 mg/kg (8B), and a tissue distribution, mouse (8C) is shown below.

[6] = target: T1, PINK1; experiment: Human Phospho-Ubiquitin (pS65) ub2 assay (western blot, in vitro PINK1 kinase assay); assay type: cell-based; conditions: in the presence of 0.5 μM FO; FIG. 14
Method: Briefly, HeLa MKYP cells were plated at 1,300,000 cells/plate in 10 cm plates in 10 mL of medium containing compound at various concentrations. Following 16 hrs of incubation, cells were treated with 0.5 uM FCCP/oligomycin for 2 hours, then harvested. Mitochondria were then isolated according to published protocols (Ordureau et al, 2014; https://doi.org/10.1016/j.molcel.2014.09.007). Equal amounts of samples were loaded on 26 well gradient gels, and a western blot analysis was performed using commercially available antibodies for various markers, including […].

[7] = tested on: Hela MKYP (Mito-Keima/YFP-Parkin) cells; experiment: Inspection of round cells; conditions: Tables 6A-6D
Method: Briefly, the Hela MKYP (Mito-Keima/YFP-Parkin) cells were seeded at 10K cells/well. EP/MTK compounds were added at seeding (cells were still in suspension). The cells were incubated with the EP/MTK compounds for 16 hours, then 1 μM FCCP/oligomycin was added for 6 hours. Prior to harvesting, cells were scored by eye under 20× magnification for the presence or absence of crystalline or aggregated compound, or round cells.

With `FC(F)(F)c1cc2c(NC3CCCc4ccccc43)ncnc2[nH]1` (centres unmarked) [Compound 15] the “Toxicity (% positive for DAPI takeup @ 50 μM)” value ([1]; Table 2) was 2.1%, the “Max cell death at 25 uM compound, 1 uM FO” value ([1]; Table 3 Supplement B, 25 uM compound, 1 uM FO) was 10.7% and the “Cell death at 25 μM (no FO)” value ([1]; Table 3 Supplement B, 25 μM, no FO) was 2.59%. For the same molecule, the “Toxicity (% positive for DAPI takeup @ 50 μM)” value ([1]; Table 4) was 2.4%, the EC50 ([2]; Table 3 Supplement B, read-out: Mitophagy EC50 (HeLa mKeima assay)) was 440 ± 120 nM and the EC50 ([2]; Table 4, read-out: Potency (EC50 Max Mitophagy)) was 440 ± 120 nM. For the same molecule, the “mitophagy as measured by FACS mKeima” value ([2]; PINK1wt vs PINK1ko cell lines, FIG. 19) was “increases mitophagy as measured by FACS mKeima in PINK1^wt but not PINK1^ko cell lines”, the “Potency at 1 μM F/O toxin*” value ([2]; Table 2, % activation of mitophagy at 1.6 μM treatment of the compound) was 55.5% and the EC50 ([3]; FIG. 22A, 22B, read-out: EC50 of decrease of pS129 synuclein increase driven by PFF addition) was 981 nM. For the same molecule, the “pS129 synuclein in PINK1ko cell lines” value ([3]; PINK1ko, FIG. 22C) was “does not decrease pS129 synuclein in PINK1^ko cell lines”, the “pS65 Ub (PINK1 substrate phosphorylation)” value [4] was “significant increase in pS65 Ub in PINK1^wt cells but not in PINK1^ko cell lines” and the AUCExtr ([5]; IV at 1 mg/kg, Table 8A) was 2.5%. For the same molecule, the AUClast ([5]; IV at 1 mg/kg, Table 8A) was 837.5 ng·h/mL, the C0 ([5]; IV at 1 mg/kg, Table 8A) was 1667.7 ng/mL and the CL ([5]; IV at 1 mg/kg, Table 8A) was 19.5 mL/min/kg. For the same molecule, the MRTlnf ([5]; IV at 1 mg/kg, Table 8A) was 2.0 h, the T1/2 ([5]; IV at 1 mg/kg, Table 8A) was 3.6 h and the Vss ([5]; IV at 1 mg/kg, Table 8A) was 2.4 L/kg. It also gave a Vz ([5]; IV at 1 mg/kg, Table 8A) of 6.0 L/kg, an AUClast ([5]; PO 10 mg/kg, Table 8B) of 692.4 ng·h/mL and an MRTlnf ([5]; PO 10 mg/kg, Table 8B) of 88.1 h. It also gave a Vss ([5]; PO 10 mg/kg, Table 8B) of 7.9 L/kg, an AUC ([5]; in vivo, IV at 1 mg/kg, Table 8A) of 838 ng·h/mL and an AUC ([5]; in vivo, PO 10 mg/kg, Table 8B) of 7350 ng·h/mL. For the same molecule, the C0 ([5]; in vivo, PO 10 mg/kg, Table 8B, read-out: C0) was 2.6 ng/mL, the “pS65 Ub signal” value [6] was “increases the pS65 Ub signal” and the “Inspection of round cells” value ([7]; 1.6 μM) was 0. For the same molecule, the “Inspection of round cells” value ([7]; 3.1 μM) was 0, the “Inspection of round cells” value ([7]; 6.3 μM) was 0 and the “Inspection of round cells” value ([7]; 12.5 μM) was 0. For the same molecule, the “Inspection of round cells” value ([7]; 25.0 μM) was 0 and the “Inspection of round cells” value ([7]; 50.0 μM) was 0.
